Test system: diarrhea-predominant IBS subjects
Assay: 3007 Study: open-label 52-week safety study, adverse events and withdrawals
Conditions: Overall

Cc1nccn1C[C@H]1CCc2c(c3cccc4c3n2CCC4)C1=O [cilansetron, (R)-(−)-4,5,6,8,9,10-hexahydro-10-[(2-methyl-1H-imidazol-1-yl)methyl]-11H-pyrido-[3,2,1-jk]-carbazol-11-one]
TEAE: Memory Loss (Excl Dementia): 1 (<1%) n (%)
TEAE: Meniere's Disease: 1 (<1%) n (%)
TEAE: Menorrhagia*: 2 (<1%) n (%)
TEAE: Menstruation Irregular*: 1 (<1%) n (%)
TEAE: Menstruation and Uterine Bleeding NEC*: 2 (<1%) n (%)
TEAE: Menstruation with Decreased Bleeding*: 1 (<1%) n (%)
TEAE: Menstruation with Increased Bleeding*: 3 (<1%) n (%)
TEAE: Mental Disorders NEC: 1 (<1%) n (%)
TEAE: Mental Status Changes: 1 (<1%) n (%)
TEAE: Metabolic Bone Disorders: 3 (<1%) n (%)
TEAE: Metabolism Tests NEC: 6 (1%) n (%)
TEAE: Metabolism and Nutrition Disorders: 21 (4%) n (%)
TEAE: Middle Ear Disorders NEC: 1 (<1%) n (%)
TEAE: Migraine Headaches: 5 (<1%) n (%)
TEAE: Migraine NOS: 5 (<1%) n (%)
TEAE: Mineral and Electrolyte Analyses: 2 (<1%) n (%)
TEAE: Monoarthritis: 2 (<1%) n (%)
TEAE: Monocyte Count Decreased: 2 (<1%) n (%)
TEAE: Monocyte Count Increased: 2 (<1%) n (%)
TEAE: Mononeuropathies: 3 (<1%) n (%)
TEAE: Motion Sickness: 1 (<1%) n (%)
TEAE: Movement Disorder NOS: 1 (<1%) n (%)
TEAE: Muscle Cramps: 10 (2%) n (%)
TEAE: Muscle Infections and Inflammations: 1 (<1%) n (%)
TEAE: Muscle Pains: 3 (<1%) n (%)
TEAE: Muscle Related Signs and Symptoms NEC: 11 (2%) n (%)
TEAE: Muscle Spasms: 1 (<1%) n (%)
TEAE: Muscle Strain: 8 (1%) n (%)
TEAE: Muscle Tone Abnormalities: 1 (<1%) n (%)
TEAE: Muscle, Tendon and Ligament Injuries: 10 (2%) n (%)
TEAE: Musculoskeletal Chest Pain: 1 (<1%) n (%)
TEAE: Musculoskeletal and Connective Tissue Disorders: 87 (16%) n (%)
TEAE: Musculoskeletal and Connective Tissue Signs and Symptoms NEC: 33 (6%) n (%)
TEAE: Musculoskeletal and Soft Tissue Imaging Procedures: 1 (<1%) n (%)
TEAE: Myalgia: 2 (<1%) n (%)
TEAE: Myasthenia Gravis: 1 (<1%) n (%)
TEAE: Mycoplasma Infections: 1 (<1%) n (%)
TEAE: Myeloradiculopathy: 1 (<1%) n (%)
TEAE: Myocardial Infarction: 1 (<1%) n (%)
TEAE: Myositis: 1 (<1%) n (%)
TEAE: Nail Fungal Infection NOS: 2 (<1%) n (%)
TEAE: Nail Infection NOS: 1 (<1%) n (%)
TEAE: Nail and Nail Bed Conditions (Excl Infections and Infestations): 1 (<1%) n (%)
TEAE: Nasal Congestion and Inflammations: 8 (1%) n (%)
TEAE: Nasopharyngitis: 28 (5%) n (%)
TEAE: Nausea: 25 (5%) n (%)
TEAE: Nausea and Vomiting Symptoms: 33 (6%) n (%)
TEAE: Neck Pain: 1 (<1%) n (%)
TEAE: Neoplasms Benign Site Unspecified NEC: 2 (<1%) n (%)
TEAE: Neoplasms Benign, Malignant and Unspecified (Incl Cysts and Polyps): 15 (3%) n (%)
TEAE: Nervous System Disorders: 64 (12%) n (%)
TEAE: Neurological Signs and Symptoms NEC: 6 (1%) n (%)
TEAE: Neuromuscular Junction Dysfunction: 1 (<1%) n (%)
TEAE: Neutrophil Count Decreased: 3 (<1%) n (%)
TEAE: Night Cramps: 1 (<1%) n (%)
TEAE: Nitrite Urine Present: 2 (<1%) n (%)
TEAE: Non-Accidental Overdose: 1 (<1%) n (%)
TEAE: Non-Site Specific Injuries NEC: 11 (2%) n (%)
TEAE: Non-Site Specific Procedural Complications: 8 (1%) n (%)
TEAE: Normal Pregnancy, Labour and Delivery*: 1 (<1%) n (%)
TEAE: Ocular Disorders NEC: 1 (<1%) n (%)
TEAE: Ocular Nerve and Muscle Disorders: 2 (<1%) n (%)
TEAE: Oedema NEC: 7 (1%) n (%)
TEAE: Oedema NOS: 1 (<1%) n (%)
TEAE: Oedema Peripheral: 6 (1%) n (%)
TEAE: Ophthalmic Function Diagnostic Procedures: 2 (<1%) n (%)
TEAE: Oral Dryness and Saliva Altered: 2 (<1%) n (%)
TEAE: Osteoarthritis Aggravated: 3 (<1%) n (%)
TEAE: Osteoarthropathies: 4 (<1%) n (%)
TEAE: Osteopenia: 1 (<1%) n (%)
TEAE: Osteoporosis NOS: 3 (<1%) n (%)
TEAE: Otitis Media NOS: 1 (<1%) n (%)
TEAE: Ovarian Cancer NOS*: 1 (<1%) n (%)
TEAE: Ovarian Cystadenofibroma*: 1 (<1%) n (%)
TEAE: Ovarian Neoplasms Benign*: 1 (<1%) n (%)
TEAE: Ovarian Neoplasms Malignant (Excl Germ Cell)*: 1 (<1%) n (%)
TEAE: Overdoses: 1 (<1%) n (%)
TEAE: Pain NOS: 3 (<1%) n (%)
TEAE: Pain and Discomfort NEC: 12 (2%) n (%)
TEAE: Pain in Limb: 6 (1%) n (%)
TEAE: Palpitations: 4 (<1%) n (%)
TEAE: Panic Attack: 1 (<1%) n (%)
TEAE: Panic Symptoms: 1 (<1%) n (%)
TEAE: Papulosquamous Conditions: 1 (<1%) n (%)
TEAE: Paraesthesias and Dysaesthesias: 2 (<1%) n (%)
TEAE: Paranasal Sinus Disorders (Excl Infections and Neoplasms): 9 (2%) n (%)
TEAE: Paranasal Sinus Hypersecretion: 1 (<1%) n (%)
TEAE: Parkinson's Disease NOS: 1 (<1%) n (%)
TEAE: Parkinson's Disease and Parkinsonism: 1 (<1%) n (%)
TEAE: Partial Vision Loss: 1 (<1%) n (%)
TEAE: Pelvic Pain NOS: 2 (<1%) n (%)
TEAE: Penile Disorders NEC (Excl Erection and Ejaculation)*: 1 (<1%) n (%)
TEAE: Penile Haemorrhage*: 1 (<1%) n (%)
TEAE: Perception Disturbances: 1 (<1%) n (%)
TEAE: Periorbital Haematoma: 1 (<1%) n (%)
TEAE: Peripheral Embolism NOS: 1 (<1%) n (%)
TEAE: Peripheral Embolism and Thrombosis: 1 (<1%) n (%)
TEAE: Peripheral Swelling: 1 (<1%) n (%)
TEAE: Peripheral Vascular Disorders NEC: 2 (<1%) n (%)
TEAE: Pharyngitis: 6 (1%) n (%)
TEAE: Pharyngitis Streptococcal: 7 (1%) n (%)
TEAE: Physical Examination Procedures: 9 (2%) n (%)
TEAE: Plantar Fasciitis: 4 (<1%) n (%)
TEAE: Pneumonia Mycoplasmal: 1 (<1%) n (%)
TEAE: Pneumonia NOS: 2 (<1%) n (%)
TEAE: Polydipsia: 1 (<1%) n (%)
TEAE: Polyuria: 1 (<1%) n (%)
TEAE: Popliteal Bursitis: 1 (<1%) n (%)
TEAE: Post Procedural Discomfort: 2 (<1%) n (%)
TEAE: Post Procedural Pain: 6 (1%) n (%)
TEAE: Posterior Capsule Opacification: 1 (<1%) n (%)
TEAE: Postnasal Drip: 1 (<1%) n (%)
TEAE: Pregnancy NOS*: 1 (<1%) n (%)
TEAE: Pregnancy, Puerperium and Perinatal Conditions: 1 (<1%) n (%)
TEAE: Premenopause*: 1 (<1%) n (%)
TEAE: Premenstrual Syndrome*: 1 (<1%) n (%)
TEAE: Proctalgia: 4 (<1%) n (%)
TEAE: Productive Cough: 1 (<1%) n (%)
TEAE: Prostate and Seminal Vesicles Infections and Inflammations*: 3 (2%) n (%)
TEAE: Prostatitis*: 3 (2%) n (%)
TEAE: Protein Urine Present: 3 (<1%) n (%)
TEAE: Proteinuria: 1 (<1%) n (%)
TEAE: Pruritus Ani: 1 (<1%) n (%)
TEAE: Pruritus NEC: 4 (<1%) n (%)
TEAE: Pruritus NOS: 4 (<1%) n (%)
TEAE: Psoriasis: 1 (<1%) n (%)
TEAE: Psychiatric Disorders: 32 (6%) n (%)
TEAE: Psychotic Disorder NEC: 1 (<1%) n (%)
TEAE: Psychotic Disorder NOS: 1 (<1%) n (%)
TEAE: Purine Metabolism Disorders NEC: 2 (<1%) n (%)
TEAE: Pyrexia: 3 (<1%) n (%)
TEAE: Rash Macular: 2 (<1%) n (%)
TEAE: Rash NOS: 6 (1%) n (%)
TEAE: Rashes, Eruptions and Exanthems NEC: 8 (1%) n (%)
TEAE: Rate and Rhythm Disorders NEC: 4 (<1%) n (%)
TEAE: Rectal Cramps: 1 (<1%) n (%)
TEAE: Rectal Disorder NOS: 1 (<1%) n (%)
TEAE: Rectal Haemorrhage: 8 (1%) n (%)
TEAE: Rectal Tenesmus: 2 (<1%) n (%)
TEAE: Red Blood Cell Analyses: 1 (<1%) n (%)
TEAE: Red Blood Cells Urine: 1 (<1%) n (%)
TEAE: Refractive Errors NOS: 1 (<1%) n (%)
TEAE: Refractive and Accommodative Disorders: 1 (<1%) n (%)
TEAE: Renal Bruit: 1 (<1%) n (%)
TEAE: Renal Function Analyses: 4 (<1%) n (%)
TEAE: Renal Lithiasis: 3 (<1%) n (%)
TEAE: Renal and Urinary Disorders: 17 (3%) n (%)
TEAE: Reproductive Organ and Breast Histopathology Procedures: 1 (<1%) n (%)
TEAE: Reproductive System and Breast Disorders: 24 (4%) n (%)
TEAE: Reproductive Tract Signs and Symptoms NEC: 3 (<1%) n (%)
TEAE: Respiratory Tract Congestion: 2 (<1%) n (%)
TEAE: Respiratory Tract Disorders NEC: 2 (<1%) n (%)
TEAE: Respiratory Tract Infection NOS: 1 (<1%) n (%)
TEAE: Respiratory, Thoracic and Mediastinal Disorders: 46 (9%) n (%)
TEAE: Retinal Detachment: 1 (<1%) n (%)
TEAE: Retinal Structural Change, Deposit and Degeneration: 1 (<1%) n (%)
TEAE: Rheumatoid Arthritis: 1 (<1%) n (%)
TEAE: Rheumatoid Arthritis Aggravated: 1 (<1%) n (%)
TEAE: Rheumatoid Arthropathies: 2 (<1%) n (%)
TEAE: Rhinitis Allergic NOS: 4 (<1%) n (%)
TEAE: Rhinitis NOS: 3 (<1%) n (%)
TEAE: Rhinitis Seasonal: 1 (<1%) n (%)
TEAE: Rhinoviral Infections: 28 (5%) n (%)
TEAE: Rib Fracture: 1 (<1%) n (%)
TEAE: Road Traffic Accident: 1 (<1%) n (%)
TEAE: Rosacea: 1 (<1%) n (%)
TEAE: Rosaceas: 1 (<1%) n (%)
TEAE: Rotator Cuff Syndrome: 1 (<1%) n (%)
TEAE: Seasonal Allergy: 5 (<1%) n (%)
TEAE: Seizures and Seizure Disorders NEC: 1 (<1%) n (%)
